Reference: ChEMBL document CHEMBL4699446, “Hydroxy-neo-Clerodanes and 5,10-seco-neo-Clerodanes from Salvia decora” (J Nat Prod, 2020)
pIC50: −log10 of the molar value. Active and inactive are the calls of the source. No cut-off for these calls is given here.

Tests used:
[1] = target: T1, Tyrosine-protein phosphatase non-receptor type 1 (Homo sapiens) (UniProt P18031); experiment: Inhibition of wild type human HIS6-tagged PTP1B (1 to 400 residues) expressed in Escherichia coli Rosetta (DE3) pLysS cells using p-NPP substrate at 0.38 to 1 mM preincubated for 10 mins followed dby substrate addition and measured after 20 mins relative to control; details: dose mM 0.38-1, time 30.0 min
T1 sequence (whole entry): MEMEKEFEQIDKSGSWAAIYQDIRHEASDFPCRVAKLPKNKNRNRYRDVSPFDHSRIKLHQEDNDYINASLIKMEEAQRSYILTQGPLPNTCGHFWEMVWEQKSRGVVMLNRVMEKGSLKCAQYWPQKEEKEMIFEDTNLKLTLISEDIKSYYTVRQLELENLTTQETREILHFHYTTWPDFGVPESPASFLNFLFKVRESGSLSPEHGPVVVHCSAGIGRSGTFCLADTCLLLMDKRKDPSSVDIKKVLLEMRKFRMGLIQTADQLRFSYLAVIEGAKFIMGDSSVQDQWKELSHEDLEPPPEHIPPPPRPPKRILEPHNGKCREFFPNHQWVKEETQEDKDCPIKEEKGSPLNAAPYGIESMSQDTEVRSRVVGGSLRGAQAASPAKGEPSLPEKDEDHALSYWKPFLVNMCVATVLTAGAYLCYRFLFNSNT

[2] = target: T1, Tyrosine-protein phosphatase non-receptor type 1 (Homo sapiens); experiment: Binding affinity to human PTP1B (1 to 405 residues) at 1:2 protein-ligand ratio
[3] = Inhibition of Saccharomyces cerevisiae alpha-glucosidase using pNPG as substrate preincubated for 10 mins followed by substrate addition after 20 mins
[4] = target: T1, Tyrosine-protein phosphatase non-receptor type 1 (Homo sapiens)
Description: Binding affinity to wild type human HIS6-tagged PTP1B (1 to 400 residues) expressed in Escherichia coli Rosetta (DE3) pLysS by tryptophan-tyrosine residues based spectrometric method

inhibition [1]	Ka [2]	pIC50 [3]	Ka [4]	SMILES
Active				CC(=O)O[C@H]1CC2=C(/C=C\C=C\[C@@]3(C)C[C@H](c4ccoc4)OC(=O)[C@@H]13)C(=O)OC2
	3.3 10^5/M			CC(C)[C@@H](CC[C@@H](C)[C@H]1CC[C@H]2[C@@H]3[C@H](O)C[C@H]4C[C@@H](NCCCNCCCCNCCCN)CC[C@]4(C)[C@H]3CC[C@]12C)OS(=O)(=O)O
50%		5.12	1.3 10^4/M	C[C@H]1[C@H](C)CC[C@]2(C(=O)O)CC[C@]3(C)C(=CC[C@@H]4[C@@]5(C)CC[C@H](O)C(C)(C)[C@@H]5CC[C@]43C)[C@H]12 [URSOLIC ACID]
